We go through 15 molecules from ChEMBL document CHEMBL1201862, “PubChem BioAssay data set” (2004).

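Step 1: Grow cells in 96-well plates. Step 2: Expose to compound for 48 hours at 5 concentrations. Step 3: Interpolate endpoints linearly; if unreached, use highest concentration. GI50 = concentration required for 50% inhibition of growth.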 Activity calls are given as the source filed them. Rule as the data show it: active = GI50 up to about 1.1 µM and inactive = higher.

Among the test systems are HCC 2998; ACHN; M14; SK-MEL-2; SK-MEL-5; U-251; EKVX; HOP-62; A549; UO-31; NCI-H522; NCI-H460; CCRF-CEM; NCI-H23; NCI-H226.
What all share (assay): NCI anticancer screen, dose series, 48 h

With `COc1ccc(/C=C2\Cc3ccccc3C2=O)cc1OC`, the GI50 is > 100 µM (inactive) with HCC 2998; > 100 µM (inactive) in the assay on ACHN; > 100 µM (inactive) in the assay with M14; > 100 µM (inactive) in the assay with SK-MEL-2; 63.4 µM (inactive) in the assay on SK-MEL-5; > 100 µM (inactive) with U-251. In addition, the GI50 with EKVX is > 100 µM (inactive); with HOP-62, > 100 µM (inactive); with A549, > 100 µM (inactive); in the assay with UO-31 it was 39.7 µM (inactive); with NCI-H522 it was 70.6 µM (inactive); in the assay on NCI-H460, > 100 µM (inactive). In addition, the GI50 in the assay with CCRF-CEM was > 100 µM (inactive); in the assay on NCI-H23, 91.6 µM (inactive).

Consider `COc1ccc(-c2cc(O)c3cc4c(cc3n2)OCO4)cc1`, for which the GI50 in the assay on HCC 2998, in the assay with ACHN, in the assay with M14, in the assay on SK-MEL-2, with SK-MEL-5 and in the assay on U-251 was > 100 µM (inactive) each time. The GI50 with EKVX is 19.9 µM (inactive); with HOP-62 it was 61 µM (inactive); in the assay on A549 it was > 100 µM (inactive); in the assay on UO-31, > 100 µM (inactive); in the assay with NCI-H226 it was 29 µM (inactive); in the assay on NCI-H460, > 100 µM (inactive). The GI50 in the assay on CCRF-CEM and in the assay on NCI-H23 was > 100 µM (inactive) in each case.

`C=C1C(=O)O[C@H]2C[C@@H](C)[C@@H]3CC(=O)OC[C@@]3(C)CC12` (stereo partly specified): the GI50 is 32.1 µM (inactive) in the assay with HCC 2998; 21.7 µM (inactive) in the assay with ACHN; 14.4 µM (inactive) with M14; 35.8 µM (inactive) in the assay with SK-MEL-2; 34.3 µM (inactive) with SK-MEL-5; 97.3 µM (inactive) with U-251. For the same molecule, the GI50 was 27.5 µM (inactive) in the assay with EKVX; 44.8 µM (inactive) in the assay on HOP-62; 27.8 µM (inactive) with A549; 49.1 µM (inactive) in the assay with UO-31; 3.56 µM (inactive) in the assay on NCI-H522; 18.8 µM (inactive) in the assay with NCI-H460. Further, the GI50 in the assay on CCRF-CEM is 12.9 µM (inactive); in the assay with NCI-H23 it was 23.3 µM (inactive).

Regarding `Nc1nc(N)c(CCCCc2ccccc2)c(C=O)n1`, the GI50 was 26.5 µM (inactive) in the assay on HCC 2998; 22.5 µM (inactive) in the assay with ACHN; 16.4 µM (inactive) with M14; 20 µM (inactive) in the assay with SK-MEL-2; 17 µM (inactive) in the assay with SK-MEL-5; 22.9 µM (inactive) with U-251. The GI50 with EKVX was 21 µM (inactive); in the assay on HOP-62, > 100 µM (inactive); with A549 it was 41.4 µM (inactive); in the assay with UO-31, 19.1 µM (inactive); in the assay with NCI-H226, 19.4 µM (inactive); with NCI-H460, 42.1 µM (inactive). The GI50 in the assay with CCRF-CEM is 10.6 µM (inactive); with NCI-H23, 19 µM (inactive).

Turning to `CC(=O)Oc1ccc(CO)cc1OC(C)=O`, the GI50 is > 100 µM (inactive) in the assay with ACHN; > 100 µM (inactive) in the assay with M14; > 100 µM (inactive) with SK-MEL-2; > 100 µM (inactive) in the assay with SK-MEL-5; > 100 µM (inactive) in the assay with U-251; 32.2 µM (inactive) in the assay on EKVX. Also, the GI50 with HOP-62 was > 100 µM (inactive); with A549, > 100 µM (inactive); in the assay on UO-31, > 100 µM (inactive); in the assay on NCI-H226 it was > 100 µM (inactive); in the assay with NCI-H522, 36.3 µM (inactive); in the assay with NCI-H460 it was > 100 µM (inactive). In the assay with CCRF-CEM, the GI50 was 27.6 µM (inactive).

`CCC1=CCN(c2cc(C)ccn2)OC1c1ccccc1` (stereo unspecified): the GI50 in the assay on HCC 2998 is 33.3 µM (inactive); with ACHN, 45.5 µM (inactive); in the assay on M14, 31.3 µM (inactive); in the assay on SK-MEL-2, 21.4 µM (inactive); in the assay with U-251, 22.8 µM (inactive); with EKVX, 56.4 µM (inactive). Besides, the GI50 in the assay on HOP-62 is > 100 µM (inactive); in the assay with A549, 40.1 µM (inactive); in the assay on UO-31, 50 µM (inactive); in the assay with NCI-H226, > 100 µM (inactive); in the assay on NCI-H522, 18.5 µM (inactive); in the assay on NCI-H460, 38.4 µM (inactive). Further, the GI50 was 35.7 µM (inactive) with CCRF-CEM and 25.4 µM (inactive) with NCI-H23.

As for `CC1(C2CCC3(C)C(C2)C3Sc2ccccc2)OCCO1` (stereo unspecified), the GI50 in the assay with HCC 2998 was 20.1 µM (inactive); in the assay with ACHN, 20.7 µM (inactive); in the assay on M14, 37 µM (inactive); in the assay on SK-MEL-2, 16.8 µM (inactive); in the assay with SK-MEL-5, 17.3 µM (inactive); in the assay with U-251 it was 19.8 µM (inactive). Further, the GI50 with EKVX is 26.7 µM (inactive); with HOP-62, 20.2 µM (inactive); in the assay on A549, 24.2 µM (inactive); with UO-31, 12.6 µM (inactive); in the assay on NCI-H522, 18.9 µM (inactive); in the assay with NCI-H460, 20.4 µM (inactive). The figures for the GI50 in the assay with CCRF-CEM and in the assay on NCI-H23 were 17.9 µM (inactive) and 22.4 µM (inactive), respectively.

Regarding `COc1cc(OC)cc(N2CCC(c3c(N)nc(N)nc3Cl)CC2)c1`, the GI50 in the assay on HCC 2998 is 67.5 µM (inactive); with ACHN, 70.5 µM (inactive); in the assay on M14, 75.3 µM (inactive); with SK-MEL-2 it was 92.3 µM (inactive); with SK-MEL-5, 24.8 µM (inactive); in the assay with EKVX, 95.3 µM (inactive). The GI50 in the assay on HOP-62 is 62.2 µM (inactive); with A549, 65 µM (inactive); in the assay on UO-31, 62.8 µM (inactive); in the assay with NCI-H522, 41.3 µM (inactive); with NCI-H460, 53.7 µM (inactive); in the assay on CCRF-CEM, 47.1 µM (inactive). Besides, the GI50 with NCI-H23 was > 100 µM (inactive).

On to `N#CC1(Cc2ccccc2)CCCCN1C(=O)c1ccccc1` (stereo unspecified), for which the GI50 in the assay on HCC 2998 was > 100 µM (inactive); in the assay on ACHN, > 100 µM (inactive); with M14, > 100 µM (inactive); in the assay with SK-MEL-2, 1.42 µM (inactive); in the assay on SK-MEL-5, > 100 µM (inactive); in the assay on U-251, > 100 µM (inactive). In addition, the GI50 with EKVX is > 100 µM (inactive); in the assay on HOP-62 it was > 100 µM (inactive); with A549, > 100 µM (inactive); in the assay on UO-31, 92.9 µM (inactive); in the assay on NCI-H460, > 100 µM (inactive); with CCRF-CEM, > 100 µM (inactive). Moreover, the GI50 with NCI-H23 is > 100 µM (inactive).

As for `C=CCCOC(=O)CO[N+](=O)[O-]`, the GI50 in the assay on HCC 2998, with ACHN, with M14, in the assay with SK-MEL-2, with U-251 and in the assay on EKVX was > 100 µM (inactive) throughout. Further, the GI50 in the assay on HOP-62, with A549, in the assay with UO-31, in the assay with NCI-H226, in the assay on NCI-H522 and in the assay on NCI-H460 was > 100 µM (inactive) throughout. Moreover, the GI50 in the assay on CCRF-CEM and with NCI-H23 was > 100 µM (inactive) throughout.

`Cc1cc2c(=O)c3ccccc3[nH]c2c(C(N)=O)c1C`: the GI50 in the assay on ACHN, in the assay with M14, in the assay with SK-MEL-2, in the assay with SK-MEL-5, in the assay with U-251 and in the assay on EKVX was > 100 µM (inactive) each time. Also, the GI50 with A549, in the assay with UO-31, in the assay with NCI-H226, with NCI-H522, in the assay on NCI-H460 and in the assay on CCRF-CEM was > 100 µM (inactive) each time. Moreover, in the assay with NCI-H23, the GI50 was > 100 µM (inactive).

As for `CSC1NC=Nc2c1sc(=S)n2-c1ccccc1` (stereo unspecified), the GI50 in the assay on HCC 2998, in the assay on ACHN, with M14, in the assay on SK-MEL-2, in the assay with SK-MEL-5 and in the assay with U-251 was > 100 µM (inactive) in each case. Also, the GI50 in the assay with EKVX was > 100 µM (inactive); in the assay with HOP-62, 24.2 µM (inactive); with A549 it was > 100 µM (inactive); in the assay on UO-31, > 100 µM (inactive); with NCI-H226, > 100 µM (inactive); in the assay with NCI-H522, > 100 µM (inactive). The GI50 in the assay with NCI-H460 and with NCI-H23 was > 100 µM (inactive) in each case.

On to `C=CC1[C@H]2COC(C)(C)O[C@@H]2CC(=O)C1(C)C` (stereo partly specified), for which the GI50 in the assay on HCC 2998 was > 100 µM (inactive); in the assay with ACHN, 94 µM (inactive); with M14, > 100 µM (inactive); in the assay on SK-MEL-2, > 100 µM (inactive); in the assay on U-251, > 100 µM (inactive); in the assay on EKVX, 54.2 µM (inactive). Besides, the GI50 in the assay on HOP-62, in the assay on A549, in the assay with UO-31, in the assay with NCI-H226, with NCI-H522 and in the assay on NCI-H460 was > 100 µM (inactive) throughout. In addition, the GI50 in the assay with NCI-H23 is > 100 µM (inactive).

Turning to `CC1CC2OC(=O)CC2C[C@@H]1O[Si](C)(C)C(C)(C)C` (stereo partly specified), the GI50 is 43.3 µM (inactive) in the assay with HCC 2998; 43.9 µM (inactive) with ACHN; 94.6 µM (inactive) in the assay on M14; 83.4 µM (inactive) with SK-MEL-2; 27 µM (inactive) with SK-MEL-5; > 100 µM (inactive) with EKVX. Besides, the GI50 in the assay with HOP-62 is 48.9 µM (inactive); in the assay with A549 it was 88.3 µM (inactive); in the assay with UO-31, 57.7 µM (inactive); in the assay on NCI-H460 it was 75.7 µM (inactive); in the assay with CCRF-CEM it was 36.8 µM (inactive); in the assay on NCI-H23, 63 µM (inactive).

For the molecule `C[C@@H]1C[C@H]2[C@@H]3CCC4=CC(=O)C=C[C@]4(C)[C@@]3(F)[C@@H](O)C[C@]2(C)[C@@]1(O)C(=O)CO` [DEXAMETHASONE], the GI50 is > 100 µM (inactive) with ACHN; > 100 µM (inactive) in the assay with M14; > 100 µM (inactive) in the assay with SK-MEL-2; > 100 µM (inactive) with SK-MEL-5; 83.6 µM (inactive) in the assay with EKVX; > 100 µM (inactive) with HOP-62. The GI50 in the assay with A549 is > 100 µM (inactive); with UO-31, > 100 µM (inactive); in the assay on NCI-H226, > 100 µM (inactive); in the assay with NCI-H522 it was > 100 µM (inactive); in the assay on CCRF-CEM, 0.0239 µM (active); with NCI-H23, > 100 µM (inactive).
